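Grown in 96-well plates, cells were treated for 48 hours with each compound at five concentrations. Insufficient inhibition: endpoint recorded as highest concentration tested. GI50 marks 50% less growth.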 Calls of active or inactive are those of the source. Rule as the data show it: active = GI50 up to about 1.1 µM and inactive = higher.
What was measured:
Assay in all cases: DTP human tumour cell line panel, 48 h
[1] = tested on: M14
[2] = tested on: SW-620
[3] = tested on: ACHN
[4] = tested on: TK-10
[5] = tested on: EKVX
[6] = tested on: OVCAR-4
[7] = tested on: LOX IMVI
[8] = tested on: NCI-H460
[9] = tested on: Malme-3M
[10] = tested on: A549
[11] = tested on: HOP-92
[12] = tested on: NCI-H522
[13] = tested on: RXF 393
[14] = tested on: HCT-116
[15] = tested on: OVCAR-8
[16] = tested on: U-251
[17] = tested on: CCRF-CEM
[18] = tested on: SF-268
[19] = tested on: UACC-257
[20] = tested on: SNB-19

Row | SMILES | GI50 [1] | GI50 [2] | GI50 [3] | GI50 [4] | GI50 [5] | GI50 [6] | GI50 [7] | GI50 [8] | GI50 [9] | GI50 [10] | GI50 [11] | GI50 [12] | GI50 [13] | GI50 [14] | GI50 [15] | GI50 [16] | GI50 [17] | GI50 [18] | GI50 [19] | GI50 [20]
1 | C/C=C/[P+](c1ccccc1)(c1ccccc1)c1ccccc1 | 4.92 µM (inactive) | 0.48 µM (active) | 4.56 µM (inactive) | 0.787 µM (active) | 0.296 µM (active) | 2.77 µM (inactive) | 1.34 µM (inactive) | 1.36 µM (inactive) | 0.541 µM (active) | 0.548 µM (active) | 0.738 µM (active) | 0.836 µM (active) | 6.14 µM (inactive) | 0.433 µM (active) | 0.426 µM (active) | 0.102 µM (active) | 0.474 µM (active) | 1.54 µM (inactive) | 0.295 µM (active) | 0.299 µM (active)
2 | CCCCCCCCCCCCCCCCOCC(Cl)CP(=O)(O)OP(=O)(O)OCC1OC(n2cnc3c(N)ncnc32)C(O)C1O (stereo not given) | > 100 µM (inactive) | > 100 µM (inactive) | > 100 µM (inactive) | > 100 µM (inactive) | > 100 µM (inactive) | > 100 µM (inactive) | > 100 µM (inactive) | 47.5 µM (inactive) | > 100 µM (inactive) | > 100 µM (inactive) | > 100 µM (inactive) | > 100 µM (inactive) | 61.8 µM (inactive) | 67 µM (inactive) | > 100 µM (inactive) | 74 µM (inactive) | > 100 µM (inactive) | > 100 µM (inactive) | > 100 µM (inactive) | 60.3 µM (inactive)
3 | COc1cc2ccc(C(=O)O)cc2cc1OC | > 100 µM (inactive) | > 100 µM (inactive) | > 100 µM (inactive) | > 100 µM (inactive) | > 100 µM (inactive) | > 100 µM (inactive) | > 100 µM (inactive) | > 100 µM (inactive) | > 100 µM (inactive) | > 100 µM (inactive) | > 100 µM (inactive) | > 100 µM (inactive) | > 100 µM (inactive) | > 100 µM (inactive) | > 100 µM (inactive) | > 100 µM (inactive) | > 100 µM (inactive) | > 100 µM (inactive) | > 100 µM (inactive) | > 100 µM (inactive)
4 | Cc1ccc2c(O)cc(-c3ccc(Cl)cc3)nc2n1 | 7.48 µM (inactive) | 5.08 µM (inactive) | 8.07 µM (inactive) | 21.2 µM (inactive) | 18 µM (inactive) | 15.2 µM (inactive) | 4.93 µM (inactive) | 3.69 µM (inactive) | 3.74 µM (inactive) | 2.73 µM (inactive) | 13.6 µM (inactive) | 5.89 µM (inactive) | 27.2 µM (inactive) | 3.1 µM (inactive) | 9.33 µM (inactive) | 5.47 µM (inactive) | 7.52 µM (inactive) | 27 µM (inactive) | 15.6 µM (inactive) | 6.97 µM (inactive)
5 | COc1cc2c(cc1O)C1Cc3ccc(OC)c(O)c3C(C2)N1C (stereo not given) | > 100 µM (inactive) | > 100 µM (inactive) | > 100 µM (inactive) | > 100 µM (inactive) | > 100 µM (inactive) | > 100 µM (inactive) | > 100 µM (inactive) | 94 µM (inactive) | > 100 µM (inactive) | > 100 µM (inactive) | 17.5 µM (inactive) | > 100 µM (inactive) | > 100 µM (inactive) | > 100 µM (inactive) | > 100 µM (inactive) | > 100 µM (inactive) | > 100 µM (inactive) | > 100 µM (inactive) | > 100 µM (inactive) | > 100 µM (inactive)
6 | Cc1ccccc1C(=O)N/N=C/c1ccc(Sc2nccn2C)c([N+](=O)[O-])c1 | > 100 µM (inactive) | > 100 µM (inactive) | > 100 µM (inactive) | > 100 µM (inactive) | 64.9 µM (inactive) | 56.2 µM (inactive) | 50.8 µM (inactive) | 49 µM (inactive) | 69.3 µM (inactive) | > 100 µM (inactive) | 14.3 µM (inactive) | 61.9 µM (inactive) | 74.3 µM (inactive) | 84.3 µM (inactive) | 72.1 µM (inactive) | 85.1 µM (inactive) | 36.5 µM (inactive) | > 100 µM (inactive) | > 100 µM (inactive) | > 100 µM (inactive)
7 | COc1cc([C@@H]2c3cc4c(cc3[C@@H](NCc3cccc(C#N)c3)C3COC(=O)[C@@H]32)OCO4)cc(OC)c1O (stereo not given in full) | 1.64 µM (inactive) | 0.646 µM (active) | 0.305 µM (active) | 2.39 µM (inactive) | 2.39 µM (inactive) | 68.7 µM (inactive) | 1.27 µM (inactive) | 0.0356 µM (active) | 2.18 µM (inactive) | 0.0815 µM (active) | 1.32 µM (inactive) | 1.46 µM (inactive) | 2.34 µM (inactive) | 2.12 µM (inactive) | 1.43 µM (inactive) | 0.303 µM (active) | 0.224 µM (active) | 2.22 µM (inactive) | 6.64 µM (inactive) | 1.1 µM (active)
8 | O=c1c(O)c(-c2ccc(O)c(O)c2)oc2cc(O)ccc12 [FISETIN] | 18.2 µM (inactive) | 23.8 µM (inactive) | 18.7 µM (inactive) | 29.7 µM (inactive) | 25.4 µM (inactive) | 31 µM (inactive) | 13.6 µM (inactive) | 8.05 µM (inactive) | 20.4 µM (inactive) | 30.3 µM (inactive) | 28.2 µM (inactive) | 13.6 µM (inactive) | 23.9 µM (inactive) | 16.3 µM (inactive) | 21.8 µM (inactive) | 7.14 µM (inactive) | 8.99 µM (inactive) | 24.9 µM (inactive) | 22.3 µM (inactive) | 10.7 µM (inactive)
9 | Cc1nn(C(=O)c2ccncc2)c2c1C(c1ccccc1O)SC(=N)N2 (stereo not given) | > 10 µM (inactive) | > 10 µM (inactive) | > 10 µM (inactive) | > 10 µM (inactive) | > 10 µM (inactive) | > 10 µM (inactive) | > 10 µM (inactive) | > 10 µM (inactive) | > 10 µM (inactive) | > 10 µM (inactive) | > 10 µM (inactive) | > 10 µM (inactive) | > 10 µM (inactive) | > 10 µM (inactive) | > 10 µM (inactive) | > 10 µM (inactive) | > 10 µM (inactive) | > 10 µM (inactive) | > 10 µM (inactive) | > 10 µM (inactive)
10 | O=C1C(Cl)=C(Cl)C(=O)N1c1cccc(C(F)(F)F)c1 | > 100 µM (inactive) | > 100 µM (inactive) | > 100 µM (inactive) | > 100 µM (inactive) | > 100 µM (inactive) | > 100 µM (inactive) | > 100 µM (inactive) | > 100 µM (inactive) | > 100 µM (inactive) | > 100 µM (inactive) | > 100 µM (inactive) | 12.1 µM (inactive) | 34 µM (inactive) | > 100 µM (inactive) | > 100 µM (inactive) | > 100 µM (inactive) | > 51.9 µM (inactive) | > 100 µM (inactive) | > 100 µM (inactive) | > 100 µM (inactive)
11 | CC1=C(NC(=O)C(=O)NNC(=O)c2ccncc2)C(=O)c2ccccc2C1=O | 9.84 µM (inactive) | 15.7 µM (inactive) | 16.1 µM (inactive) | 45.2 µM (inactive) | 13.5 µM (inactive) | 13.8 µM (inactive) | 3.66 µM (inactive) | 4.44 µM (inactive) | 5.26 µM (inactive) | 13.6 µM (inactive) | 15.5 µM (inactive) | 12.4 µM (inactive) | 15.4 µM (inactive) | 11.4 µM (inactive) | 18.4 µM (inactive) | 9.04 µM (inactive) | 20 µM (inactive) | 23.6 µM (inactive) | 9.77 µM (inactive) | 17.5 µM (inactive)
12 | C[C@@H]1C[C@H](O)[C@]2(O)O[C@@H]3C[C@@]4(C=O)[C@@H](CC[C@@H]5[C@@H]4CC[C@]4(C)[C@@H](C6=CC(=O)OC6)CC[C@]54O)C[C@H]3O[C@@H]2O1 [CALOTROPIN] | 0.065 µM (active) | 0.0247 µM (active) | 0.0188 µM (active) | 0.0254 µM (active) | 0.0178 µM (active) | 0.0179 µM (active) | 0.0231 µM (active) | 0.0187 µM (active) | 0.0167 µM (active) | 0.014 µM (active) | 0.0545 µM (active) | 0.0162 µM (active) | 0.0176 µM (active) | 0.0193 µM (active) | 0.0348 µM (active) | 0.034 µM (active) | 0.0175 µM (active) | 0.0406 µM (active) | 0.0592 µM (active) | 0.083 µM (active)
13 | Cn1c(=S)c2nc(SCCCc3ccccc3)[nH]c2n(C)c1=O | 17.6 µM (inactive) | 36.4 µM (inactive) | 27.2 µM (inactive) | 17.4 µM (inactive) | 13.7 µM (inactive) | 13 µM (inactive) | 27.5 µM (inactive) | 7.14 µM (inactive) | 62.1 µM (inactive) | 13.7 µM (inactive) | 78.3 µM (inactive) | 4.33 µM (inactive) | 56.5 µM (inactive) | 21.8 µM (inactive) | 28.2 µM (inactive) | 23.2 µM (inactive) | 6.59 µM (inactive) | 32.5 µM (inactive) | 8.24 µM (inactive) | 16.6 µM (inactive)
14 | CCOc1ccc2nc3cc(/N=N/c4ccc(N)nc4N)ccc3c(N)c2c1 | 20 µM (inactive) | 2.51 µM (inactive) | 18.2 µM (inactive) | 13.9 µM (inactive) | 7.96 µM (inactive) | 6.92 µM (inactive) | 0.419 µM (active) | 21.3 µM (inactive) | 4.45 µM (inactive) | 15 µM (inactive) | 9.06 µM (inactive) | 2.99 µM (inactive) | 2.19 µM (inactive) | 1.66 µM (inactive) | 2.73 µM (inactive) | 0.578 µM (active) | 0.136 µM (active) | 1.64 µM (inactive) | 19.1 µM (inactive) | 1.67 µM (inactive)

— ChEMBL document CHEMBL1201862, “PubChem BioAssay data set” (2004)
